IC50 data for two compounds are collected here from article PMC11551917 (RSC Advances, 2024).

The experiment has as its target Jack-bean urease (Canavalia ensiformis, UniProt P07374). Description: indophenol ammonia assay, […] nm. It is filed as biochemical.

Jack-bean urease, sequence (P07374 whole entry, looked up): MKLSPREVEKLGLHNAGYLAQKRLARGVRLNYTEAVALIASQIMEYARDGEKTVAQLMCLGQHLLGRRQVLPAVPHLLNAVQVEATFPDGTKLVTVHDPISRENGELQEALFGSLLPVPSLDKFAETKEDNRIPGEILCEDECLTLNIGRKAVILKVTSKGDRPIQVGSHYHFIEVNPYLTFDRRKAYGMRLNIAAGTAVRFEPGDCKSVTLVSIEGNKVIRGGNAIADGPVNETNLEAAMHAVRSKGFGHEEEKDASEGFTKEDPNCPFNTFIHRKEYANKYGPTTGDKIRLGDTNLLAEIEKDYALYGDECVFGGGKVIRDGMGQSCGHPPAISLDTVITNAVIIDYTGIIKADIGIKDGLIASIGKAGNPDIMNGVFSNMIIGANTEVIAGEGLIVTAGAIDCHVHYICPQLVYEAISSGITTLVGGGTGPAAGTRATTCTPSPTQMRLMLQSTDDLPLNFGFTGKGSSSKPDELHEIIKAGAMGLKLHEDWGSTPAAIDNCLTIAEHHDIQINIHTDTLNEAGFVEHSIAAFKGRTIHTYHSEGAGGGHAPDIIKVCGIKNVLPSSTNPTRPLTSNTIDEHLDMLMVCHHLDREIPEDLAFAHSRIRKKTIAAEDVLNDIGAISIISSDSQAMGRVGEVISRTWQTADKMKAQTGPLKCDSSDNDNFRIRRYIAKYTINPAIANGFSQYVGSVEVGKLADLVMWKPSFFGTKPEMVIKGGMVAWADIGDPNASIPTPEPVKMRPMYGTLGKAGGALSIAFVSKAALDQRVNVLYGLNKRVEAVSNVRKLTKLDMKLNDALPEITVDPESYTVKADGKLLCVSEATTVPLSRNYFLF

The compound `NC(N)=S` [Thiourea] registered an IC50 of 24.5 ± 0.47 µM. Then `Nc1cccc(C(=O)O)c1` [3-ABA], with 31.4 ± 0.48 µM.
